From patent US8487113B2, “Method for the preparation of tizanidine hydrochloride” (Farmak, A.S., priority 2008, dated 2013)
Counter-ions that a name gives are not always drawn.

Experiments:
[1] = per 1 g of substance, crystallization as in EP 644 192
[2] = per 1 g of substance, crystallization as in U.S. Pat. No. 3,843,668

| volume of ethanol needed for dissolution of 1 g [1] | volume of methanol needed for dissolution of 1 g [2] | SMILES |
| --- | --- | --- |
| at least 43 ml | – | Clc1ccc2nsnc2c1NC1=NCCN1 [tizanidine hydrochloride] |
| – | at least 37 ml | Clc1ccc2nsnc2c1NC1=NCCN1 [tizanidine base, 5-chloro-4-(2-imidazolin-2-yl-amino)-2,1,3-benzothiadiazole] |
